Molecular target: human GPR40 (Homo sapiens (Human), UniProt O14842)
Experiment: GPR40 Calcium Flux Assay
Format: cell-based
Conditions: transfected HEK293 cells stably expressing human GPR40; Ca2+ mobilization; mean data; read-out: hGPR40 Ca^2+ Assay EC50
Experimental: Compounds were tested in a calcium flux assay using transfected HEK293 cells stably expressing either human GPR40 or rat GPR40. Human GPR40 expressing cells were cultured in DMEM-High Glucose media supplemented with 10% fetal bovine serum, 1×L-Glutamine, 1×Penicillin/Streptomycin and 500 μg/mL G418. Rat GPR40 expressing cells were cultured in DMEM-High Glucose media supplemented with 10% fetal bovine serum and 1 μg/mL puromycin. Cells were plated into poly-D-lysine coated 384-well plates and cultured overnight in a 37° C. humidified tissue culture incubator under 5% CO2/[…] atmosphere. On the day of the experiment, the culture media was replaced with assay buffer (HBSS, 20 mM HEPES, 0.1% BSA) and the cells incubated at 37° C. for 1 h. Calcium-sensitive fluorescent dye (Fluo 8 No-Wash Calcium Dye, ABD Bioquest) was then added and the cells incubated for another 30 min at 37° C. followed by 15 min at room temperature while protected from the light. The cell plate and a plate of diluted compounds of Formula (I) were loaded into a fluorescent plate reader that added compounds onto the cells while measuring the fluorescence intensity of each well. The plate reader recorded fluorescence intensity at 1 second intervals for 8 min and provided the data for analysis in an Excel format. EC50 values were calculated using Prism (GraphPad) software.

Sequence of human GPR40 (O14842 whole entry): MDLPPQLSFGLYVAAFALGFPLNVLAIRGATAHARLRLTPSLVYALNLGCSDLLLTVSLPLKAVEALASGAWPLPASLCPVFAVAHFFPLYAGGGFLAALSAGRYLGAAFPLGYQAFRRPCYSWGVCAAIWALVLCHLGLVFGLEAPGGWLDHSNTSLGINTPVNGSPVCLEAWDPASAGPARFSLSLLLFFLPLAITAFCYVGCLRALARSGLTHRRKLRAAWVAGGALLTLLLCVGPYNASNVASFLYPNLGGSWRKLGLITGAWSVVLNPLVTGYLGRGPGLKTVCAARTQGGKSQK

**Q.** How did the EC50 turn out when `CC#CC(CC(=O)O)c1ccc(OCc2ccc3scc(-c4ccc(OC5CCOCC5)cc4C)c3c2)nc1` (stereo not shown) [Cpd 46, 3-(6-((3-(2-Methyl-4-((tetrahydro-2H-pyran-4-yl)oxy)phenyl)benzo[b]thiophen-5-yl)methoxy)pyridin-3-yl)hex-4-ynoic acid] was run?
**A.** Its EC50 is 0.018 µM.

**Q.** Which EC50 does the source give for `CC#CC(CC(=O)O)c1ccc(OCc2ccc3scc(-c4ccc(OCCOC)cc4C)c3c2)nc1` (stereo not shown) [Cpd 47, 3-(6-((3-(4-(2-Methoxyethoxy)-2-methylphenyl)benzo[b]thiophen-5-yl)methoxy)pyridin-3-yl)hex-4-ynoic acid] here?
**A.** Its EC50 is 0.02 µM.

**Q.** With `CC#C[C@@H](CC(=O)O)c1ccc(OCc2ccc3scc(-c4ncc(OCCOC)cc4C)c3c2)cc1` [Cpd 48, (3S)-3-(4-((3-(5-(2-Methoxyethoxy)-3-methylpyridin-2-yl)benzo[b]thiophen-5-yl)methoxy)phenyl)hex-4-ynoic acid] as the molecule, how does the EC50 read?
**A.** The EC50 was 0.01 µM.

**Q.** For `CC#C[C@@H](CC(=O)O)c1ccc(OCc2ccc3scc(-c4cc(OCCOC)cnc4C)c3c2)cc1` [Cpd 49, (3S)-3-(4-((3-(5-(2-Methoxyethoxy)-2-methylpyridin-3-yl)benzo[b]thiophen-5-yl)methoxy)phenyl)hex-4-ynoic acid], which EC50 is on record?
**A.** The EC50 was 0.009 µM.

**Q.** Which EC50 does the source give for `CC#C[C@@H](CC(=O)O)c1ccc(OCc2ccc3scc(-c4ccc(OCCOC)nc4C)c3c2)cc1` [Cpd 50, (3S)-3-(4-((3-(6-(2-Methoxyethoxy)-2-methylpyridin-3-yl)benzo[b]thiophen-5-yl)methoxy)phenyl)hex-4-ynoic acid] here?
**A.** The EC50 was 0.012 µM.

**Q.** Which EC50 does the source give for `CC#C[C@@H](CC(=O)O)c1ccc(OCc2ccc3scc(-c4cnc(OCCOC)cc4C)c3c2)cc1` [Cpd 51, (3S)-3-(4-((3-(6-(2-Methoxyethoxy)-4-methylpyridin-3-yl)benzo[b]thiophen-5-yl)methoxy)phenyl)hex-4-ynoic acid] here?
**A.** Its EC50 is 0.006 µM.

**Q.** For `CC#C[C@@H](CC(=O)O)c1ccc(OCc2ccc3scc(-c4cc(Cl)ncc4C)c3c2)cc1` [Cpd 52, (3S)-3-(4-((3-(2-Chloro-5-methylpyridin-4-yl)benzo[b]thiophen-5-yl)methoxy)phenyl)hex-4-ynoic acid], which EC50 is on record?
**A.** Its EC50 is 0.019 µM.

**Q.** How did the EC50 turn out when `Cc1ccccc1-c1csc2ccc(OCc3ccc(CCC(=O)O)cc3)cc12` [Cpd 53, 3-(4-(((3-(2-Methylphenyl)benzo[b]thiophen-5-yl)oxy)methyl)phenyl)propanoic acid] was run?
**A.** The EC50 was 0.89 µM.

**Q.** How did the EC50 turn out when `CC#C[C@@H](CC(=O)O)c1ccc(COc2ccc3scc(-c4ccc(OCCC(C)(C)O)cc4C)c3c2)cc1` [Cpd 54, (3S)-3-[4-[([3-[4-(3-Hydroxy-3-methylbutoxy)-2-methylphenyl]-1-benzothiophen-5-yl]oxy)methyl]phenyl]hex-4-ynoic acid] was run?
**A.** The EC50 was 0.044 µM.

**Q.** Which EC50 does the source give for `CC#C[C@@H](CC(=O)O)c1ccc(COc2ccc3scc(-c4ccc(OCC(O)CO)cc4C)c3c2)cc1` (stereo partly drawn) [Cpd 55, (3S)-3-[4-[([3-[4-(2,3-Dihydroxypropoxy)-2-methylphenyl]-1-benzothiophen-5-yl]oxy)methyl]phenyl]hex-4-ynoic acid] here?
**A.** Its EC50 is 0.033 µM.

**Q.** Which EC50 does the source give for `CC#C[C@@H](CC(=O)O)c1ccc(COc2ccc3scc(-c4ccc(OCC5(C)COC5)cc4C)c3c2)cc1` [Cpd 56, (3S)-3-(4-[[(3-[2-Methyl-4-[(3-methyloxetan-3-yl)methoxy]phenyl]-1-benzothiophen-5-yl)oxy]methyl]phenyl)hex-4-ynoic acid] here?
**A.** The EC50 was 0.034 µM.

**Q.** How did the EC50 turn out when `CC#C[C@@H](CC(=O)O)c1ccc(COc2ccc3scc(-c4ccc(OC5CCOCC5)cc4C)c3c2)cc1` [Cpd 57, (3S)-3-[4-[([3-[2-Methyl-4-(oxan-4-yloxy)phenyl]-1-benzothiophen-5-yl]oxy)methyl]phenyl]hex-4-ynoic acid] was run?
**A.** Its EC50 is 0.017 µM.

**Q.** Which EC50 does the source give for `CC#C[C@@H](CC(=O)O)c1ccc(COc2ccc3scc(-c4ccc(OCCOC)cc4C)c3c2)cc1` [Cpd 58, (3S)-3-[4-[([3-[4-(2-Methoxyethoxy)-2-methylphenyl]-1-benzothiophen-5-yl]oxy)methyl]phenyl]hex-4-ynoic acid] here?
**A.** The EC50 was 0.014 µM.

Source: patent US10131648B2, “Substituted benzothiophenyl derivatives as GPR40 agonists for the treatment of type II diabetes” (Janssen Pharmaceutica NV, priority 2014, dated 2018)
